In ChEMBL document CHEMBL1125334, “New nonpeptide angiotensin II receptor antagonists. 2. Synthesis, biological properties, and structure-activity relationships of 2-alkyl-4-(biphenylylmethoxy)quinoline derivatives” (J Med Chem, 1992):

What was measured:
[1] = target: T1, Type-1 angiotensin II receptor (Cavia porcellus, UniProt Q9WV26); assay: In vitro inhibition of the specific binding of [125I]angiotensin II to a guinea pig adrenal membrane preparation
T1 sequence (Q9WV26 whole entry): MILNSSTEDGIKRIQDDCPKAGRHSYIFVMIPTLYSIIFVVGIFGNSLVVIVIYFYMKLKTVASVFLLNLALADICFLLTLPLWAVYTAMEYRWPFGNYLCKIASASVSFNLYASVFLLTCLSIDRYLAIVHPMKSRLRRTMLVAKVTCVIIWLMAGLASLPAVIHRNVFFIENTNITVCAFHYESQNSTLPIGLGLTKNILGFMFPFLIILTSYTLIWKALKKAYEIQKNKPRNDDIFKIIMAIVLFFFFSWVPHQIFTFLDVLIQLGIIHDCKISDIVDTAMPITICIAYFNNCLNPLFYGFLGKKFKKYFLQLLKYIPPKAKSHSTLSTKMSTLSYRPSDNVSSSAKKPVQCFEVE

[2] = target: Angiotensin II receptor (Rattus norvegicus) (UniProt P29089+P25095+P35351); assay: (§1) Intravenous administration to conscious rats for inhibition of pressor response induced by infusion of AII (angiotensin-II).; format: functional, organism-based
Rattus norvegicus = assay: as §1; format: functional

| IC50 [1] [nM] | ED50 [2] [mg/kg] | Compound | ED50 (Rattus norvegicus) [mg/kg] |
| --- | --- | --- | --- |
| 4600 | – | Cc1nc2ccccc2c(OCc2ccc(-c3ccccc3-c3nnn[nH]3)cc2)c1C | – |
| – | > 5 | CCc1cc(OCc2ccc(-c3ccccc3-c3nn[nH]n3)cc2)c2ccc(OC)cc2n1 | – |
| 960 | > 5 | CCc1cc(OCc2ccc(-c3ccccc3-c3nn[nH]n3)cc2)c2cccc(OC)c2n1 | – |
| – | > 5 | CCc1cc(OCc2ccc(-c3ccccc3-c3nn[nH]n3)cc2)c2c(Cl)cccc2n1 | – |
| 66 | 2.1 | CCc1cc(OCc2ccc(-c3ccccc3-c3nn[nH]n3)cc2)c2cc(C(=O)OC)ccc2n1 | – |
| 140 | – | CCc1cc(OCc2ccc(-c3ccccc3-c3nnn[nH]3)cc2)c2cccc(Cl)c2n1 | – |
| – | > 5 | CCc1cc(OCc2ccc(-c3ccccc3-c3nn[nH]n3)cc2)c2cccc(C(F)(F)F)c2n1 | – |
| 270 | – | Cc1cc(CCc2ccc(-c3ccccc3-c3nnn[nH]3)cc2)c2ccccc2n1 | – |
| 600 | – | CCCc1cc(OCc2ccc(-c3ccccc3C(=O)O)cc2)c2ccccc2n1 | – |
| 860 | – | CCc1cc(OCc2ccc(-c3ccccc3-c3nnn[nH]3)cc2)c2cc(C(F)(F)F)ccc2n1 | – |
| 18 | – | CCCCc1nc(Cl)c(CO)n1Cc1ccc(-c2ccccc2-c2nn[nH]n2)cc1 [LOSARTAN POTASSIUM] | – |
| 6300 | – | c1ccc(-c2nnn[nH]2)c(-c2ccc(COc3ccnc4ccccc34)cc2)c1 | – |
| – | 0.65 | CCCCc1nc(Cl)c(CO)n1Cc1ccc(-c2ccccc2-c2nnn[nH]2)cc1 | – |
| – | 0.73 | Cc1cc(OCc2ccc(-c3ccccc3-c3nn[nH]n3)cc2)c2ccccc2n1 | – |
| – | > 5 | CCc1cc(OCc2ccc(-c3ccccc3-c3nn[nH]n3)cc2)c2cc(C(F)(F)F)ccc2n1 | – |
| 220 | – | CCc1cc(OCc2ccc(-c3ccccc3-c3nnn[nH]3)cc2)c2ccc(OC)cc2n1 | – |
| 370 | – | Cc1cc(SCc2ccc(-c3ccccc3-c3nn[nH]n3)cc2)c2ccccc2n1 | – |
| 22 | 0.32 | CCc1cc(OCc2ccc(-c3ccccc3-c3nn[nH]n3)cc2)c2cc(OC)ccc2n1 | – |

| IC50 [1] [nM] | ED50 [2] [mg/kg] | Compound | ED50 (Rattus norvegicus) [mg/kg] |
| --- | --- | --- | --- |
| 60 | – | CCc1cc(OCc2ccc(-c3ccccc3-c3nnn[nH]3)cc2)c2c(C#N)cccc2n1 | – |
| 70 | 0.34 | CCc1cc(OCc2ccc(-c3ccccc3-c3nn[nH]n3)cc2)c2cc(OCCF)ccc2n1 | – |
| 140 | > 5 | CCc1cc(OCc2ccc(-c3ccccc3-c3nn[nH]n3)cc2)c2ccc(C)cc2n1 | – |
| 31 | – | CCc1cc(OCc2ccc(-c3ccccc3-c3nnn[nH]3)cc2)c2ccccc2n1 | 1 |
| – | 0.18 | CCc1cc(OCc2ccc(-c3ccccc3-c3nn[nH]n3)cc2)c2cc(OC(C)C)ccc2n1 | – |
| 120 | – | CCc1cc(OCc2ccc(-c3ccccc3-c3nnn[nH]3)cc2)c2c(Cl)cccc2n1 | – |
| 470 | > 5 | Cc1ccc2nc(C)cc(OCc3ccc(-c4ccccc4-c4nn[nH]n4)cc3)c2c1 | – |
| 26 | – | CCc1cc(OCc2ccc(-c3ccccc3-c3nnn[nH]3)cc2)c2cc(OC(C)C)ccc2n1 | – |
| 310 | > 5 | Cc1cc(OCc2ccc(-c3ccccc3-c3nn[nH]n3)cc2)c2cccc(C)c2n1 | – |
| 13 | – | CCc1cc(OCc2ccc(-c3ccccc3-c3nnn[nH]3)cc2)c2c(C)cccc2n1 | – |
| 180 | – | Cc1cc(OCc2ccc(-c3ccccc3C(=O)O)cc2)c2ccccc2n1 | – |
| 460 | > 5 | CCc1cc(OCc2ccc(-c3ccccc3-c3nn[nH]n3)cc2)c2ccc(C#N)cc2n1 | – |
| 160 | > 5 | CCc1cc(OCc2ccc(-c3ccccc3-c3nn[nH]n3)cc2)c2ccc(Cl)cc2n1 | – |
| 430 | – | CCCCc1nc(Cl)c(CO)n1Cc1ccc(-c2ccccc2C(=O)O)cc1 | – |
| 360 | – | CCc1cc(OCc2ccc(-c3ccccc3-c3nnn[nH]3)cc2)c2cc(C#N)ccc2n1 | – |
| – | > 5 | CCc1cc(OCc2ccc(-c3ccccc3-c3nn[nH]n3)cc2)c2cc(C#N)ccc2n1 | – |
| 26 | 0.71 | CCc1cc(OCc2ccc(-c3ccccc3-c3nn[nH]n3)cc2)c2cc(OCC(F)(F)F)ccc2n1 | – |
